In the test the target is purified porcine DP IV (Sus scrofa, UniProt P22411). Description: Determination of IC50 values, DP IV. The test is classed as biochemical. To be noted: Gly-Pro-pNA 0.4 mM, HEPES pH 7.6, 30° C. The method, then: 100 μl inhibitor stock solution were mixed with 100 μl buffer (HEPES pH7.6) and 50 μl substrate (Gly-Pro-pNA, final concentration 0.4 mM) and preincubated at 30° C. Reaction was started by addition of 20 μl purified porcine DP IV. Formation of the product pNA was measured at 405 nm over 10 min using the HTS 7000Plus plate reader (Perkin Elmer) and slopes were calculated. The final inhibitor concentrations ranged between 1 mM and 30 nM. For calculation of IC50 GraFit 4.0.13 (Erithacus Software) was used.
Sequence of purified porcine DP IV (P22411 whole entry): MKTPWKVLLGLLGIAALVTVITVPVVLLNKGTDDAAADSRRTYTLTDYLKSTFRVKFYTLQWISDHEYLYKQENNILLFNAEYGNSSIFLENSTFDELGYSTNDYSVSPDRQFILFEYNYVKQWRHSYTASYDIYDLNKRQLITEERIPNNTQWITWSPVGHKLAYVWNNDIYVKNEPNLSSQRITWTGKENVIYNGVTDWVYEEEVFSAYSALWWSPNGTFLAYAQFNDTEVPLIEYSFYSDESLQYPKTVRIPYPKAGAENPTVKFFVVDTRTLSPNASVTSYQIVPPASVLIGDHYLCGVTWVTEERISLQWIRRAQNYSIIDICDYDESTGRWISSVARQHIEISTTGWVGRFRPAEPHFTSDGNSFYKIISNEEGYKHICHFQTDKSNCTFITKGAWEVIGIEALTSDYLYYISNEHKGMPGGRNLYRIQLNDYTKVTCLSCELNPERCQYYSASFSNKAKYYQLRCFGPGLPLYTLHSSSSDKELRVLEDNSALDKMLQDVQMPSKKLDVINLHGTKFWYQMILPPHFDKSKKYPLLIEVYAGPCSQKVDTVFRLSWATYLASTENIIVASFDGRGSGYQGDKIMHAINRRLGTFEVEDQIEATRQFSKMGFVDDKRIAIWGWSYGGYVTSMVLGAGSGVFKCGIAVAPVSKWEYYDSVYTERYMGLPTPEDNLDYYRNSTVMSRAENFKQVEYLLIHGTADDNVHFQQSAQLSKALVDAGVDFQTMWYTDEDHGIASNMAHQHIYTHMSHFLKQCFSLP

Broadly, the IC50 is the concentration that gives 50% inhibition. With `NC(=O)CCC(N)C(=O)N1CCSC1` (stereo not shown) [Gln-Thia, glutaminyl thiazolidine], the half-inhibitory concentration (IC50) is 5.27 µM.

The values above are taken from patent publication US7368421B2, “Use of dipeptidyl peptidase IV inhibitors in the treatment of multiple sclerosis” (Probiodrug AG, priority 2001, dated 2008).
